From patent US20090257999A1, “Method of preventing contrast-induced nephropathy” (Inotek Pharmaceuticals Corporation, priority 2007, published 2009)

How the values were obtained:
Assay type in all cases: in vivo, rat
[1] = test system: diabetic rats; assay: Histologic evaluation of kidney outer medulla damage, Example 1; details: at 96 hours
Experimental: (§1) Experimental model for assessing the effects of Metalloporphyrin A on CIN: Diabetic (n=8) for group #'s 1-9 or wild-type rats (n=10) for group #'s 10 and 11 were treated with drug 60 min prior to contrast agent administration. At the “0” time point, Iomeprol was administered with ensuing drug intervention dosing every 12 hours for Metalloporphyrin A from 24-84 hours or every 24 hours for NAC from 24-72 hours. At the 96 hour time point, kidneys were harvested for histopathology, MPO and MDA measurements. From 0-96 hours, plasma samples from all animals per group were screened for urea, creatinine, fractional excretion of Na^+ and NGAL.
At postmortem, a […] section of kidney was removed and placed in formalin and processed through to wax. […] sections were cut and stained with hematoxylin and eosin. Histologic assessment of tubular necrosis was determined semi-quantitatively using a method modified from McWhinnie et al, Transplantation. 42(4):352-81986, 1986.
Histologic assessment of outer medulla damage was examined by an experienced morphologist, who was not aware of the sample identity. […]

[2] = test system: malondialdehyde (MDA) in kidneys; assay: Kidney malondialdehyde (MDA) levels, Example 1; details: at 96 hours
Experimental: as §1
Levels of malondialdehyde (MDA) in kidneys were determined as an indicator of lipid peroxidation following a protocol described previously (Davenport et. al. Clin. Transplant. 9 (3 Pt 1):171-51995).
Kidney tissue was weighed and homogenized in a 1.15% (wt/vol) KCl solution. A […] aliquot of homogenate was then removed and added to a reaction mixture containing […] 8.1% (wt/vol) lauryl sulfate, 1.5 mL 20% (vol/vol) acetic acid (pH 3.5), 1.5 mL 0.8% (wt/vol) thiobarbituric acid, and 700 mL distilled water. Samples were then boiled for one hour at 95° C. and centrifuged at 3000 g for 10 minutes. The absorbance of the supernatant was measured spectrophotometrically at […]. MDA levels were expressed as μM/100 mg wet tissue.

[3] = test system: diabetic rats; assay: CIN model, Example 5: INO-1001 alone and with NAC in diabetic rats; details: diabetic rats + Iomeprol, NAC 30 mg/kg i.v., INO-1001 10 mg/kg ip, or both, at −30 min
Experimental: Male Wistar rats (150-200 g; Harlan Nossanr) were housed in a controlled environment and provided with standard rodent chow and water. Diabetes was induced after 12 h of fasting. The animals received a single 60 mg/kg intravenous (i.v.) injection of streptozotocin (Sigma, St. Louis, Mo.) in 10 mM sodium citrate buffer, pH 4.5 (see figure). Control non-diabetic animals were fasted and received citrate buffer alone. After 24 hours, animals with blood glucose levels greater than 250 mg/dl were considered diabetic. The diabetic state was confirmed by evaluating the blood glucose levels. Ten days following the induction of diabetes rats were anesthetized with 90 mg/kg ketamine i.m. and 10 mg/kg xylazine i.m. and were treated with the contrast agent iomeprol (10 mL/kg injected via the lateral tail vein) or with 0.9% normal saline. The contrast agent used was the low osmolar non-ionic monomer iomeprol (Iomeron, 400 mgI mL-1; Bracco SpA, Milan, Italy) with an osmolality of 726±34 mosmol/kg H2O.
GROUP 1: Diabetic rats only+Placebo (i.v.). GROUP 2: Diabetic rats+Iomeprol+Placebo (i.v.) given at −30 min. GROUP 3: Diabetic rats+Iomeprol+NAC (30 mg/kg, i.v.) given at −30 min. GROUP 4: Diabetic rats+Iomeprol+INO-1001 (10 mg/kg, ip) given at −30 min. GROUP 5: Diabetic rats+Iomeprol+NAC (30 mg/kg, i.v.)+INO-1001 (10 mg/kg, ip) given at −30 min.
Blood samples were collected via the lateral tail vein into S1/3 tubes containing serum gel at 24 hours. The samples were centrifuged (6000 r.p.m. for 3 min) to separate plasma. All plasma samples were analyzed for biochemical parameters within 24 hours after collection. Plasma and urine concentrations of creatinine were measured as indicators of impaired glomerular function. Creatinine clearance was calculated using the following formula (=UV/P), where U refers to Creatinine concentration in urine, V to urine volume/min and P to serum creatinine. Plasma and urine concentrations of NGAL (neutrophil gelatinase associated lipocalin) levels and urine αGST (alpha glutathione S-transferase) and NGAL levels were evaluated.
Protein concentration in urine was determined by Bio-Rad DC Protein Assay (BioRad, Richmond Calif.). The Bio-Rad DC protein assay is a colorimetric assay for protein concentration. The reaction is similar to the well-documented Lowry assay (Lowry et al., Protein measurement with the Folin phenol reagent, J Biol Chem 193, 265-275 (1951). The Bio-Rad DC protein assay requires only a single 15-minute incubation, and absorbance is stable for a least 2 hours. The amount of protein is expressed in mg/ml.

[4] = test system: Myeloperoxidase (MPO) activity in kidneys; assay: Kidney myeloperoxidase (MPO) activity, Example 1; details: at 96 hours
Experimental: as §1
Myeloperoxidase (MPO) activity in kidneys was used as an indicator of polymorphonuclear (PMN) cell infiltration activation using a method previously described (Hillegass et al, J. Pharmacol. Methods. 24(4):285-95,1990).
At the end of the experiments, kidney tissue was weighed and homogenized in a solution containing 0.5% (wt/vol) hexadecyltrimethylammonium bromide dissolved in 10 mmol/L potassium phosphate buffer (pH 7.4) and centrifuged for 30 minutes at 20,000 g at 4° C. […] The rate of change in absorbance was measured spectrophotometrically at 650 nm. MPO activity was defined as the quantity of enzyme required to degrade 1 mmol of H2O2 at 37° C. and was expressed in U/g wet tissue.

[5] = diabetic rats + i.v. Iomeprol, Metalloporphyrin A 30-1000 μg/kg or NAC 10 mg/kg i.p.
[6] = diabetic rats + i.v. saline (no contrast agent), Metalloporphyrin A 1000 μg/kg or NAC 10 mg/kg i.p.

CC(=O)N[C@@H](CS)C(=O)O [NAC, N-acetylcysteine]
kidney injury (histological score) [1, 5]: significant reductions
kidney injury (histological score) [1, 6]: significantly reduced
MDA levels in the kidney [2, 5]: significant reductions
MDA levels in the kidney [2, 6]: significantly reduced the increase
plasma creatinine ([3]; 24 h): significant reductions
plasma NGAL concentration ([3]; 24 hours): significant reductions
total protein concentration in the urine ([3]; 24 hours): significant reductions
urine NGAL concentration ([3]; 24 hours): significant reductions
urine αGST ([3]; 24 hours): significant reductions
kidney MPO activity [4, 5]: significant reductions
kidney MPO activity [4, 6]: significantly reduced the increase
